The text below walks through data of US9884063B2, “Amido-substituted azole compounds” (Bayer Pharma Aktiengesellschaft, priority 2014, dated 2018).

SMILES strings stand for the structures. Where only a bound is given, the exact number is not on record here.

In this experiment the target is T1, TNKS1 (Homo sapiens, UniProt O95271).
T1 sequence (O95271 1-1327): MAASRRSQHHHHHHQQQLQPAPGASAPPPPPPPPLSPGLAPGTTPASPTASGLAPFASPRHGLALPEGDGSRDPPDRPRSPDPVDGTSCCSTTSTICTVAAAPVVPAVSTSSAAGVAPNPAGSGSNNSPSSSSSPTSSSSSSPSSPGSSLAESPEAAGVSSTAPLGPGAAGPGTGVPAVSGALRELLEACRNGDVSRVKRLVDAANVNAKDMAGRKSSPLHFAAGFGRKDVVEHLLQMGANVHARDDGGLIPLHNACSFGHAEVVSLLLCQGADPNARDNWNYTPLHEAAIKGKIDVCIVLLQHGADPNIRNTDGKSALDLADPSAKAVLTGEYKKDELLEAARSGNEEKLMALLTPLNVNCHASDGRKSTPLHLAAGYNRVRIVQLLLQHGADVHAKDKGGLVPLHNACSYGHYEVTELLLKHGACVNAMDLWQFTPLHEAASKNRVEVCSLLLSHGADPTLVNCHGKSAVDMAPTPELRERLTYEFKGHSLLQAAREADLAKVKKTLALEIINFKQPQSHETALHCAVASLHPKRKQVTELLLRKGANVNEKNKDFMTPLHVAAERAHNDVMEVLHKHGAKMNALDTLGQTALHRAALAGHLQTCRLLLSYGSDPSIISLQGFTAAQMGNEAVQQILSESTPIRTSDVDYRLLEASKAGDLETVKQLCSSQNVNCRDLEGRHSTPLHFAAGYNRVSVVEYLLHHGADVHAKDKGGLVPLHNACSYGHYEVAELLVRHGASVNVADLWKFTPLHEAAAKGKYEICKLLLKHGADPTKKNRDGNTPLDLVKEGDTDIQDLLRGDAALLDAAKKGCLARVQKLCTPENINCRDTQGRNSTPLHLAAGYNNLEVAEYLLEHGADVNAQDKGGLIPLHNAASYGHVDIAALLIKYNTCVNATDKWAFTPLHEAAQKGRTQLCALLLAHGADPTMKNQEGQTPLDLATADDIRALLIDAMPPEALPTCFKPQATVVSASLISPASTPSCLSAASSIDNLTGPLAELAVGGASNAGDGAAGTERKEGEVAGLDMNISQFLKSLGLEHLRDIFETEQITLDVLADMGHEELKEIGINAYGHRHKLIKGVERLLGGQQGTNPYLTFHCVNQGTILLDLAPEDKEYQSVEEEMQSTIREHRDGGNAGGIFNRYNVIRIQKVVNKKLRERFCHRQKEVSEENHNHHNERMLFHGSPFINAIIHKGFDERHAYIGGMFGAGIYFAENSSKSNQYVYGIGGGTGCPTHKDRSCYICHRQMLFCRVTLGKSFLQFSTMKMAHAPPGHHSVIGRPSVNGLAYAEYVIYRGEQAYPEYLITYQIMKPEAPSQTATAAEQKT
Put plainly: Modified TNKS1 Assay 2 (auto-parsylation, [3H]-NAD+ SPA). It counts as biochemical. The settings on record: 6 nM TNKS1, 96 well. As to the method:
The potency of selected compounds according to the invention was assessed applying an modified in vitro inhibition assay. Here, the TNKS1 catalyzed NAD^+-dependent ribosylation of the enzyme itself (auto-parsylation) was detected using [^3H]-NAD^+ as substrate and applying the scintillation proximity assay (SPA) method to detect tritium-labeled, parsylated TNKS1. The intensity of the readout signal is proportional to the incorporated [^3H]-NAD^+. Inhibition of TNKS1 leads to a decreased incorporation of [^3H]-NAD^+ and consequently to a lower readout signal intensity. The concentration of a test compound which inhibits the enzyme activity by 50% (corresponds to half of the normed readout signal intensity) is reported as IC50.
The assay was conducted in a 96 well MTP format with the identical TNKS1 enzyme sample and NAD^+ sample as in the histone ribosylation assay with the following modifications: TNKS1 enzyme sample was diluted with a modified assay buffer (50 mM MES pH 7.0, 1 mM DTT, 0.01% Triton X-100) to a final concentration of 6 nM TNKS1 and 10×NAD^+ solution was diluted with the modified assay buffer (s. above) to a final 0.445×NAD^+ solution doped with 100 Bq/ul [^3H]-NAD^+[Catalog #NET443H050UC, Perkin Elmer, Waltham, Mass., USA]. Substrate solution (10 ul) was incubated with different test compound concentrations (2.5 ul in 10% DMSO in modified assay buffer) or control (2.5 ul 10% DMSO in modified assay buffer only) and enzyme (10 ul) over night at room temperature. Incorporated tritium was measured after addition of 50 ul SPA beads (1 mg/ml) [Catalog #RPNQ0095 20 mg/ml, Perkin Elmer, Waltham, Mass., USA; diluted 1:10 with Dulbecco's phosphate buffered saline, PBS Catalog #D8537, Sigma-Aldrich, Steinheim, Germany] and detection of the photon emission with a beta count plate reader [Wallac MicroBeta®, Perkin Elmer, Waltham, Mass., USA].

Take `CN1CCN(C(C)(C)CNC(=O)c2[nH]cnc2C(=O)Nc2ccc(NC(=O)c3ccc(F)cc3Cl)cc2)CC1` [Example 187, N^4-{4-[(2-chloro-4-fluorobenzoyl)amino]phenyl}-N^5-[2-methyl-2-(4-methylpiperazin-1-yl)propyl]-1H-imidazole-4,5-dicarboxamide]: the IC50 was 50 nM.

Turning to `CNC(=O)c1nc[nH]c1C(=O)Nc1ccc(NC(=O)c2c(Cl)cccc2Cl)cc1` [Example 26, N^5-{4-[(2,6-dichlorobenzoyl)amino]phenyl}-N^4-methyl-1H-imidazole-4,5-dicarboxamide], it took 1700 nM to reach half-maximal inhibition (IC50).

The compound `CNC(=O)c1nc[nH]c1C(=O)Nc1ccc(NC(=O)c2ccc(F)cc2)cc1` [Example 20, N^5-{4-[(4-fluorobenzoyl)amino]phenyl}-N^4-methyl-1H-imidazole-4,5-dicarboxamide] came in with an IC50 greater than 10000 nM.

`CC(C)(CNC(=O)c1[nH]cnc1C(=O)Nc1ccc(NC(=O)c2ccccc2Cl)cc1)N1CCCCC1` [Example 165, N^4-{4-[(2-chlorobenzoyl)amino]phenyl}-N^5-[2-methyl-2-(piperidin-1-yl)propyl]-1H-imidazole-4,5-dicarboxamide] registered an IC50 of 30 nM.

The compound `CC1CCN(CC(C)(C)NC(=O)c2[nH]cnc2C(=O)Nc2ccc(NC(=O)c3ccc(F)cc3Cl)cc2)CC1` [Example 155, N^4-{4-[(2-chloro-4-fluorobenzoyl)amino]phenyl}-N^5-[2-methyl-1-(4-methylpiperidin-1-yl)propan-2-yl]-1H-imidazole-4,5-dicarboxamide] displayed an IC50 of 60 nM.

Take `NC(=O)c1nc[nH]c1C(=O)Nc1ccc(NC(=O)c2ccc(F)cc2Cl)cc1` [Example 121]: the IC50 stood at 40 nM.

For the compound `CNC(=O)c1nc[nH]c1C(=O)Nc1ccc(NC(=O)c2ccccc2C)cc1` [Example 19, N^4-methyl-N^5-{4-[(2-methylbenzoyl)amino]phenyl}-1H-imidazole-4,5-dicarboxamide], 1800 nM corresponded to half-maximal inhibition (IC50).

The compound `CNC(=O)c1nc[nH]c1C(=O)Nc1ccc(NC(=O)c2ccncc2Cl)cc1` [Example 6, N^5-{4-[(3-chloroisonicotinoyl)amino]phenyl}-N^4-methyl-1H-imidazole-4,5-dicarboxamide] came in with an IC50 of 150 nM.

As for `CNC(=O)c1nc[nH]c1C(=O)Nc1ccc(NC(=O)c2cc(OCCN3CCCCC3)ccc2Cl)cc1` [Example 125, N^5-[4-({2-chloro-5-[2-(piperidin-1-yl)ethoxy]benzoyl}amino)phenyl]-N^4-methyl-1H-imidazole-4,5-dicarboxamide], the IC50 was greater than 10000 nM.

`CNC(=O)c1nc[nH]c1C(=O)Nc1ccc(NC(=O)c2ccccc2O)cc1` [Example 239, N^5-{4-[(2-hydroxybenzoyl)amino]phenyl}-N^4-methyl-1H-imidazole-4,5-dicarboxamide] returned a half-inhibitory concentration (IC50) greater than 10000 nM.

As to `CNC(=O)c1nc[nH]c1C(=O)Nc1ccc(NC(=O)c2cccc(OC)c2Cl)cc1` [Example 252, N^5-{4-[(2-chloro-3-methoxybenzoyl)amino]phenyl}-N^4-methyl-1H-imidazole-4,5-dicarboxamide], the IC50 was 9300 nM.

For `CNC(=O)c1nc[nH]c1C(=O)Nc1ccc(NC(=O)c2ncccc2Cl)cc1` [Example 247, N^5-(4-{[(3-chloropyridin-2-yl)carbonyl]amino}phenyl)-N^4-methyl-1H-imidazole-4,5-dicarboxamide], inhibition was half-maximal at 910 nM (IC50).

`CCS(=N)(=O)c1ccc(C(=O)Nc2ccc(NC(=O)c3[nH]cnc3C(=O)NCCN3CCCCC3)cc2)c(Cl)c1` (stereo not drawn) [Example 256, N^5-(4-{[2-chloro-4-(S-ethylsulfonimidoyl)benzoyl]amino}phenyl)-N^4-[2-(piperidin-1-yl)ethyl]-1H-imidazole-4,5-dicarboxamide] yielded an IC50 of 9 nM.

`CNC(=O)c1nc[nH]c1C(=O)Nc1ccc(NC(=O)c2ccc(OC(F)(F)F)cc2F)cc1` [Example 253, N^5-(4-{[2-fluoro-4-(trifluoromethoxy)benzoyl]amino}phenyl)-N^4-methyl-1H-imidazole-4,5-dicarboxamide] returned an IC50 greater than 10000 nM.

On to `CNC(=O)c1nc[nH]c1C(=O)Nc1ccc(NC(=O)c2ccc(OC(F)F)cc2F)cc1` [Example 251, N^5-(4-{[4-(difluoromethoxy)-2-fluorobenzoyl]amino}phenyl)-N^4-methyl-1H-imidazole-4,5-dicarboxamide], for which the IC50 was greater than 10000 nM.

The compound `COCCNC(=O)c1[nH]cnc1C(=O)Nc1ccc(NC(=O)c2ccc(F)cc2Cl)cc1` [Example 130, N^4-{4-[(2-chloro-4-fluorobenzoyl)amino]phenyl}-N^5-(2-methoxyethyl)-1H-imidazole-4,5-dicarboxamide] registered an IC50 of 30 nM.

Take `CN(C)C(=O)c1nc[nH]c1C(=O)Nc1ccc(NC(=O)c2ccc(F)cc2Cl)cc1` [Example 24, N^5-{4-[(2-chloro-4-fluorobenzoyl)amino]phenyl}-N^4,N^4-dimethyl-1H-imidazole-4,5-dicarboxamide]: inhibition was half-maximal at 2600 nM (IC50).

Turning to `CC(C)CNC(=O)c1[nH]cnc1C(=O)Nc1ccc(NC(=O)c2ccc(F)cc2Cl)cc1` [Example 147, N^4-{4-[(2-chloro-4-fluorobenzoyl)amino]phenyl}-N^5-isobutyl-1H-imidazole-4,5-dicarboxamide], 110 nM corresponded to half-maximal inhibition (IC50).

With `CNC(=O)c1nc[nH]c1C(=O)Nc1ccc(NC(=O)c2ccc(F)cc2Cl)cc1` [Example 12, N^5-{4-[(2-chloro-4-fluorobenzoyl)amino]phenyl}-N^4-methyl-1H-imidazole-4,5-dicarboxamide], the IC50 amounted to 20 nM.

Compound `CNC(=O)c1nc[nH]c1C(=O)Nc1ccc(NC(=O)c2ccccc2OC(F)(F)F)cc1` [Example 243, N^4-methyl-N^5-(4-{[2-(trifluoromethoxy)benzoyl]amino}phenyl)-1H-imidazole-4,5-dicarboxamide] yielded an IC50 greater than 10000 nM.

Regarding `CNC(=O)c1nc[nH]c1C(=O)Nc1ccc(NC(=O)c2cc(OC)c(OC)cc2Cl)cc1` [Example 240, N^5-{4-[(2-chloro-4,5-dimethoxybenzoyl)amino]phenyl}-N^4-methyl-1H-imidazole-4,5-dicarboxamide], the IC50 was determined as 8 nM.

The compound `CNC(=O)c1nc[nH]c1C(=O)Nc1ccc(NC(=O)c2cc(OC)ccc2Cl)cc1` [Example 248, N^5-{4-[(2-chloro-5-methoxybenzoyl)amino]phenyl}-N^4-methyl-1H-imidazole-4,5-dicarboxamide] came in with an IC50 of 240 nM.

As to `CC(CNC(=O)c1[nH]cnc1C(=O)Nc1ccc(NC(=O)c2ccccc2Cl)cc1)N1CCCCC1` (stereo not drawn) [Example 182, N^4-{4-[(2-chlorobenzoyl)amino]phenyl}-N^5-[2-(piperidin-1-yl)propyl]-1H-imidazole-4,5-dicarboxamide], the midpoint of inhibition, the IC50, lay at 10 nM.

`CNC(=O)c1nc[nH]c1C(=O)Nc1ccc(NC(=O)c2cc(F)c(F)cc2Cl)cc1` [Example 242, N^5-{4-[(2-chloro-4,5-difluorobenzoyl)amino]phenyl}-N^4-methyl-1H-imidazole-4,5-dicarboxamide] yielded an IC50 of 20 nM.

As usually defined, the IC50 is the midpoint of a concentration-inhibition curve. Higher therefore signals weaker potency in that assay.
